Results from PubChem BioAssay AID248 (DTP/NCI, 2004).
“And” between values parts separate entries of the source, which are not always exact repeats. Equal values may be shown once. Toxic doses and inconclusive results are not listed. Cut-off read from the data, not from the text of the source: active = T/C of 150% or more; inactive = T/C below 125%.

Test system: L1210 leukemia ip in BDF1 mice, survival T/C
Assay: NCI In Vivo Anticancer Drug Screen. Data for tumor model L1210 Leukemia (intraperitoneal) in B6D2F1 (BDF1) mice
Details: endpoint: mean survival time, higher = longer survival
Outline: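 Each compound was tested against a transplantable tumor grown in mice. The endpoint was survival, with treated animals benchmarked against vehicle controls as a simple ratio.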

[1] = dose: 100.0 mg/kg/injection, schedule: Q04DX003 (ip), vehicle: saline with Tween-80
[2] = dose: 200.0 mg/kg/injection, schedule: Q04DX003 (ip), vehicle: saline with Tween-80
[3] = dose: 400.0 mg/kg/injection, schedule: Q04DX003 (ip), vehicle: saline with Tween-80
[4] = dose: 100.0 mg/kg/injection, schedule: Q01DX009 (ip), vehicle: Klucel (hydroxypropylcellulose) (HPC)
[5] = dose: 200.0 mg/kg/injection, schedule: Q01DX009 (ip), vehicle: Klucel (hydroxypropylcellulose) (HPC)
[6] = dose: 400.0 mg/kg/injection, schedule: Q01DX009 (ip), vehicle: Klucel (hydroxypropylcellulose) (HPC)
[7] = dose: 100.0 mg/kg/injection, schedule: Q04DX003 (ip), vehicle: saline
[8] = dose: 100.0 mg/kg/injection, schedule: Q01DX009 (ip), vehicle: saline with Tween-80
[9] = dose: 200.0 mg/kg/injection, schedule: Q01DX009 (ip), vehicle: saline with Tween-80
[10] = dose: 100.0 mg/kg/injection, schedule: Q04DX003 (ip), vehicle: Klucel (hydroxypropylcellulose) (HPC)
[11] = dose: 200.0 mg/kg/injection, schedule: Q04DX003 (ip), vehicle: Klucel (hydroxypropylcellulose) (HPC)
[12] = dose: 400.0 mg/kg/injection, schedule: Q04DX003 (ip), vehicle: Klucel (hydroxypropylcellulose) (HPC)
[13] = dose: 100.0 mg/kg/injection, schedule: Q01DX001 (ip), vehicle: saline
[14] = dose: 200.0 mg/kg/injection, schedule: Q01DX001 (ip), vehicle: Klucel (hydroxypropylcellulose) (HPC)
[15] = dose: 400.0 mg/kg/injection, schedule: Q01DX001 (ip), vehicle: Klucel (hydroxypropylcellulose) (HPC)

Measured: T/C

Cc1cc(CCCC(=O)O)c(C)s1
inactive: [1] 101 % of control | [2] 104 % of control | [3] 101 % of control

O=C(C1OC1c1ccccc1)C1OC1c1ccccc1 (centres undefined)
inactive: [4] 98 % of control | [5] 101 % of control | [6] 95 % of control

C/C=C/c1ccc2ccc[n+](C)c2c1O
inactive: dose: 25.0 mg/kg/injection, schedule: Q04DX003 (ip), vehicle: saline 94 % of control | dose: 50.0 mg/kg/injection, schedule: Q01DX001 (ip), vehicle: carboxymethylcellulose (CMC) 103 % of control | dose: 50.0 mg/kg/injection, schedule: Q04DX003 (ip), vehicle: saline 98 % of control | dose: 100.0 mg/kg/injection, schedule: Q01DX001 (ip), vehicle: carboxymethylcellulose (CMC) 95 % of control | [7] 94 % of control

O=[N+]([O-])c1ccc(SSc2ccc([N+](=O)[O-])cc2)cc1
inactive: [8] 95 % of control | dose: 100.0 mg/kg/injection, schedule: Q04DX002 (ip), vehicle: Klucel (hydroxypropylcellulose) (HPC) 115 % of control | [9] 87 % of control | dose: 200.0 mg/kg/injection, schedule: Q04DX002 (ip), vehicle: Klucel (hydroxypropylcellulose) (HPC) 100 % of control | dose: 400.0 mg/kg/injection, schedule: Q01DX009 (ip), vehicle: saline with Tween-80 94 % of control | dose: 400.0 mg/kg/injection, schedule: Q04DX002 (ip), vehicle: Klucel (hydroxypropylcellulose) (HPC) 86 % of control

O=C(O)c1cccnc1C(=O)Nc1cccc2ccccc12
inactive: dose: 100.0 mg/kg/injection, schedule: Q04DX002 (ip), vehicle: saline with Tween-80 105 % of control | dose: 200.0 mg/kg/injection, schedule: Q04DX002 (ip), vehicle: saline with Tween-80 105 % of control | dose: 400.0 mg/kg/injection, schedule: Q04DX002 (ip), vehicle: saline with Tween-80 105 % of control

Cc1cc2c3ccc(C)[n+](C)c3ccc2n1C
inactive: dose: 1.25 mg/kg/injection, schedule: Q01DX009 (ip), vehicle: saline 109 % of control | dose: 2.5 mg/kg/injection, schedule: Q01DX009 (ip), vehicle: saline 115 % of control | dose: 2.5 mg/kg/injection, schedule: Q04DX003 (ip), vehicle: saline 112 % of control | dose: 5.0 mg/kg/injection, schedule: Q01DX009 (ip), vehicle: saline 115 % of control | dose: 5.0 mg/kg/injection, schedule: Q04DX003 (ip), vehicle: saline 110 % of control | dose: 9.5 mg/kg/injection, schedule: Q01DX001 (ip), vehicle: saline 106 % of control | dose: 10.0 mg/kg/injection, schedule: Q04DX003 (ip), vehicle: saline 112 % of control | dose: 20.0 mg/kg/injection, schedule: Q04DX003 (ip), vehicle: saline 103 % of control

COC(=O)C1C(C(=O)OC)C2(Cl)C(Cl)=C(Cl)C1(Cl)C2(Cl)Cl (centres undefined)
inactive: [4] 98 % of control | [5] 104 % of control

C[N+](C)(C)C1(Cc2ccc(Cl)cc2)c2ccccc2-c2ccccc21
inactive: dose: 12.5 mg/kg/injection, schedule: Q01DX009 (ip), vehicle: Klucel (hydroxypropylcellulose) (HPC) 97 % of control | dose: 12.5 mg/kg/injection, schedule: Q04DX003 (ip), vehicle: Klucel (hydroxypropylcellulose) (HPC) 95 % of control | dose: 25.0 mg/kg/injection, schedule: Q01DX009 (ip), vehicle: Klucel (hydroxypropylcellulose) (HPC) 92 % of control | dose: 25.0 mg/kg/injection, schedule: Q04DX003 (ip), vehicle: Klucel (hydroxypropylcellulose) (HPC) 95 % of control | dose: 50.0 mg/kg/injection, schedule: Q01DX009 (ip), vehicle: Klucel (hydroxypropylcellulose) (HPC) 98 % of control | dose: 50.0 mg/kg/injection, schedule: Q04DX003 (ip), vehicle: Klucel (hydroxypropylcellulose) (HPC) 92 % of control

CCOC(=O)C1CCC(=O)N1 (centres undefined)
inactive: [10] 96 % of control | [11] 98 % of control | [12] 98 % of control

CC(=O)/C=C/c1ccccc1
inactive: dose: 100.0 mg/kg/injection, schedule: Q01DX001 (ip), vehicle: gum acacia 91 % of control | dose: 200.0 mg/kg/injection, schedule: Q01DX001 (ip), vehicle: gum acacia 105 % of control | dose: 400.0 mg/kg/injection, schedule: Q01DX001 (ip), vehicle: gum acacia 97 % of control

CC1(C(=O)O)CCC2(C)CCC3(C)C(=CC(=O)C4C5(C)CCC(OC6OC(C(=O)O)C(O)C(O)C6OC6OC(C(=O)O)C(O)C(O)C6O)C(C)(C)C5CCC43C)C2C1 (centres undefined)
inactive: dose: 50.0 mg/kg/injection, schedule: Q01DX009 (ip), vehicle: saline 94 % of control | dose: 100.0 mg/kg/injection, schedule: Q01DX009 (ip), vehicle: saline 91 % of control and 107 % of control and 100 % of control | [7] 100 % of control | dose: 200.0 mg/kg/injection, schedule: Q01DX009 (ip), vehicle: saline 91 % of control and 90 % of control and 94 % of control | dose: 200.0 mg/kg/injection, schedule: Q04DX003 (ip), vehicle: saline 105 % of control | dose: 400.0 mg/kg/injection, schedule: Q01DX009 (ip), vehicle: saline 98 % of control and 93 % of control | dose: 400.0 mg/kg/injection, schedule: Q04DX003 (ip), vehicle: saline 103 % of control

OC(C(F)(F)F)C(F)(F)Cl (centres undefined)
inactive: [13] 104 % of control

O=C(O)C1=CC2C=C(Cl)C=CC2OC1=O (centres undefined)
inactive: dose: 5.0 mg/kg/injection, schedule: Q01DX001 (ip), vehicle: saline 95 % of control | dose: 10.0 mg/kg/injection, schedule: Q01DX001 (ip), vehicle: saline 93 % of control | dose: 20.0 mg/kg/injection, schedule: Q01DX001 (ip), vehicle: saline 96 % of control | dose: 40.0 mg/kg/injection, schedule: Q01DX001 (ip), vehicle: saline 96 % of control | dose: 80.0 mg/kg/injection, schedule: Q01DX001 (ip), vehicle: saline 96 % of control | [13] 111 % of control | dose: 200.0 mg/kg/injection, schedule: Q01DX001 (ip), vehicle: saline 100 % of control

Oc1ccc2ccnc(Cc3ccc(Br)cc3)c2c1
inactive: [14] 89 % of control | [15] 89 % of control

CC(C)=CC/C(C)=C/C=N\Nc1ccc([N+](=O)[O-])cc1[N+](=O)[O-]
inactive: [1] 98 % of control | [2] 95 % of control | [3] 93 % of control

ClC1=C(Cl)C(Cl)=C(Cl)C1=Cc1ccccc1
inactive: dose: 3.13 mg/kg/injection, schedule: Q01DX009 (ip), vehicle: saline with Tween-80 113 % of control | dose: 6.25 mg/kg/injection, schedule: Q01DX009 (ip), vehicle: saline with Tween-80 107 % of control | dose: 25.0 mg/kg/injection, schedule: Q04DX002 (ip), vehicle: Klucel (hydroxypropylcellulose) (HPC) 100 % of control | dose: 50.0 mg/kg/injection, schedule: Q04DX002 (ip), vehicle: Klucel (hydroxypropylcellulose) (HPC) 90 % of control

O=C(CC(CC(=O)c1ccccc1)c1ccco1)c1ccccc1
inactive: [4] 90 % of control | [10] 94 % of control | [5] 94 % of control | [11] 101 % of control | [6] 86 % of control | [12] 92 % of control

Cc1ccc(N=C(N)NC#N)cc1
inactive: [1] 89 % of control | [2] 86 % of control | [3] 88 % of control

Nc1ccnc2snnc12
inactive: dose: 50.0 mg/kg/injection, schedule: Q01DX009 (ip), vehicle: saline with Tween-80 96 % of control | dose: 50.0 mg/kg/injection, schedule: Q04DX003 (ip), vehicle: saline with Tween-80 93 % of control | dose: 100.0 mg/kg/injection, schedule: Q01DX001 (ip), vehicle: saline with Tween-80 111 % of control | [8] 90 % of control | [1] 102 % of control | dose: 200.0 mg/kg/injection, schedule: Q01DX001 (ip), vehicle: saline with Tween-80 98 % of control | [9] 95 % of control | [2] 107 % of control

O=[N+]([O-])C1(Br)c2ccccc2-c2nc3ccccc3cc21 (centres undefined)
inactive: dose: 100.0 mg/kg/injection, schedule: Q01DX001 (ip), vehicle: Klucel (hydroxypropylcellulose) (HPC) 94 % of control | [14] 97 % of control | [15] 94 % of control

Cc1ccc(Nc2cc(N)nc(N)n2)cc1
inactive: dose: 25.0 mg/kg/injection, schedule: Q01DX Z (ip), vehicle: methylcellulose (MC) 100 % of control

C[n+]1cccc2cccc(C(=O)O)c21
inactive: dose: 75.0 mg/kg/injection, schedule: Q01DX001 (ip), vehicle: saline 100 % of control | dose: 150.0 mg/kg/injection, schedule: Q01DX001 (ip), vehicle: saline 94 % of control
